Tested on: Sarcoma-180
Assay: Pharmacological Test I: tumor weight in ICR mice subcutaneously transplanted with Sarcoma-180, oral administration
Type: in vivo
Conditions: Mus musculus, Sarcoma-180, 240 h, once a day for 7 consecutive days, tumor weight on 10th day after transplantation, read-out: ED50 (50% tumor inhibition dose, T/C = 0.5)
Experimental: Sarcoma-180 subcultured in an ascites of ICR mice was diluted with a physiological saline solution and subcutaneously transplanted into the backs of ICR mice in an amount of 2×10^7 cells each. Twenty-four hours after the transplantation, a test compound suspended in a 5% solution of gum arabic was orally administered to each of mice once a day for 7 consecutive days.
The solid tumor was isolated from under the dorsal skin of mice on the 10th day after the transplantation to measure the weight of the tumor. There was determined the ratio (T/C) of the weight of tumor (T) cut out from the group of mice treated with the test compound to the weight of tumor (C) from the group of mice not treated therewith. The 50% tumor inhibition dose (ED50 value) in which T/C is 0.5 was determined from the dose-response curve of dosage and the ratio (T/C).

CCC(=O)OC[C@H]1O[C@@H](n2cc(F)c(=O)[nH]c2=O)C[C@@H]1OCc1cccs1
ED50: 2 mg/kg

Reference: patent US5047521A, “5-fluorouracil derivatives” (Otsuka Pharmaceutical Co., Ltd., priority 1986, dated 1991)
